# Measurements reported in patent publication US9938249B2, “Anti-amyloid compounds containing benzofurazan” (Treventis Corporation, priority 2014, dated 2018).
# Key:
# [1] = target: Terminally biotinylated beta-amyloid (Aβ42) (Homo sapiens, UniProt P05067); assay: Aβ42 biotinylated (biotin-AB) oligomerization assay, NeutrAvidin capture ELISA; assay type: biochemical; settings: approximate value; 1 hr oligomerization at room temperature; read-out: IC50 Aβ 42-bio
# Method in brief: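 Biotin-Aβ42, pretreated with HFIP/TFA to remove seeds, oligomerized 1 h at room temperature with compound in 20 mM sodium phosphate pH 7.5, 150 mM NaCl (DMSO up to 1%). Oligomers captured on NeutrAvidin plates, detected with streptavidin-HRP/TMB at 450 nm; IC50 approximate, in µM.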
# [2] = target: Aβ40 (Homo sapiens, UniProt P05067); assay: ThT Aβ aggregation assay (kinetic Thioflavin T fluorescence); assay type: biochemical; settings: 20 μM Aβ, DMSO control at 80 hr = 0% inhibition, number in parenthesis = compound ID 1027 in that experiment; for inhibition at 5 µM: 80 h, compound 5 μm (so in the source), read-out: % inhib Thioflavin T Aβ 40 (5 μm); for inhibition at 10 µM: compound 10 μM, read-out: % inhib Thioflavin T Aβ 40 10 μM
# Experimental: Preparation of Aβ40 Stock Solutions
# Aβ40 (1.0 mg) was pre-treated in a 1.5 mL microfuge tube with HFIP (1 mL) and sonicated for 20 min to disassemble any pre-formed Aβ aggregates. The HFIP was removed with a stream of argon and the Aβ dissolved in Tris base (5.8 mL, 20 mM, pH ˜10). The pH was adjusted to 7.4 with concentrated HCl (˜10 μL) and the solution filtered using a syringe filter (0.2 μm) before being used.
# The kinetic ThT assay for Aβ aggregation is similar to that of Chalifour et al (Chalifour et al, 2003, J. Biol. Chem. 278:34874-81). Briefly, pre-treated Aβ40 or Aβ42 (40 μM in 20 mM Tris, pH 7.4) was diluted with an equal volume of 8 μM Thioflavin T (ThT) in Tris (20 mM, pH 7.4, 300 mM NaCl). Aliquots of Aβ/ThT (200 μL) were added to wells of a black polystyrene 96-well plate, followed by 2 μL of a compound in DMSO (variable concentration), or DMSO alone (controls). Incubations were performed in triplicate and were taken to contain 20 μM Aβ, various concentration of compound in 20 mM Tris, pH 7.4, 150 mM NaCl, 1% DMSO. Plates were covered with clear polystyrene lids and incubated at 37° C. in a Tecan Genios microplate reader.
# Analysis of ThT and ThS Aggregation Assays
# Fluorescence readings (λex=450 nm, λem=480 nm) were taken every 15 min., after first shaking at high intensity for 15 s and allowing to settle for 10 s before each reading. Active compounds attenuated the increase in fluorescence over time that occurred in controls. In FIGS. 1-7, the time this procedure was performed extended to 80 hours (rightmost part of X-axis), at which point fluorescence increase generally reached an asymptote. Applying a definition of DMSO control at 80 hr as 100% aggregation (0% inhibition) and DMSO control at 0 hr as 0% aggregation (100% inhibition), a % inhibition score where higher is better can be calculated for a given concentration of compound. By repeating this procedure over several concentrations, a […] (IC50) can be measured, as is given in the table below for some compounds.
# Sequence of Aβ40 (P05067 672-711, species assumed): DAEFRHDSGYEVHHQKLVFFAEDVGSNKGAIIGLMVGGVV
# Sequence of Terminally biotinylated beta-amyloid (Aβ42) (P05067 672-713, species assumed): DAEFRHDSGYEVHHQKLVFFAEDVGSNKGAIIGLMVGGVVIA
IC50 [1] [µM],inhibition at 5 µM [2] [%],inhibition at 10 µM [2] [%],Structure (SMILES)
> 20,15,36,CN(C)C(=O)c1ccccc1-c1cc(N2CC(CN3CCCC3)C2)c2nonc2c1 [compound 1542]
2.9,71,77,OC(c1cc(-c2cc(N3CC(CN4CCCC4)C3)c3nonc3c2)cs1)C(F)(F)F (stereo not shown) [compound 1535]
> 20,,62,Brc1cc(N2CC(CN3CCOCC3)C2)c2nonc2c1 [compound 1470]
16.7,,61,COc1ccc(-c2cc(N3CC(CN4CCCC4)C3)c3nonc3c2)c(OC)c1 [compound 1515]
12.9,,57,N#Cc1cccc(-c2cc(N3CC(CN4CCCC4)C3)c3nonc3c2)c1 [compound 1493]
1.3,,55,COCCN1CCC=C(c2cc(N3CC(CN4CCCC4)C3)c3nonc3c2)C1 [compound 1523]
3.6,,65,"Brc1cc(N2CC(CN3CCCC3)C2)c2nonc2c1 [compound 1472, 6-bromo-4-(3-(pyrrolidin-1-ylmethyl)azetidin-1-yl)benzo[c][1,2,5]oxadiazole]"
3.1,,77,OC(c1ccccc1-c1cc(N2CC(CN3CCCC3)C2)c2nonc2c1)C(F)(F)F (stereo not shown) [compound 1474]
4.78,,55,FC(F)(F)c1ccc(-c2cc(N3CC(CN4CCCC4)C3)c3nonc3c2)cc1 [compound 1502]
5.1,28,43,OC(c1ccccc1-c1cc(N2CCC(N3CCCC3)CC2)c2nonc2c1)C(F)(F)F (stereo not shown) [compound 1467]
4.62,,62,Clc1cccc(-c2cc(N3CC(CN4CCCC4)C3)c3nonc3c2)c1 [compound 1505]
2.01,,45,Cc1ccc(-c2cc(N3CC(CN4CCCC4)C3)c3nonc3c2)c2ccccc12 [compound 1494]
13.5,,41,Clc1ccc(-c2cc(N3CC(CN4CCCC4)C3)c3nonc3c2)cn1 [compound 1496]
0.62,,33,CC(C)(C)c1ccc(-c2cc(N3CC(CN4CCCC4)C3)c3nonc3c2)cc1 [compound 1487]
> 20,,71,c1cc(-c2cc(N3CC(CN4CCCC4)C3)c3nonc3c2)cs1 [compound 1509]
6.1,,46,OC(c1cc(N2CC(CN3CCCC3)C2)c2nonc2c1)C(F)(F)F (stereo not shown) [compound 1520]
> 20,,51,COc1cccc(-c2cc(N3CC(CN4CCCC4)C3)c3nonc3c2)c1OC [compound 1500]
10.8,,48,O=C(C1CN(c2cc(-c3cccc(C(O)C(F)(F)F)c3)cc3nonc23)C1)N1CCCC1 (stereo not shown) [compound 1498]
8.69,,31,COc1ccc(-c2cc(N3CC(CN4CCCC4)C3)c3nonc3c2)cc1C [compound 1488]
18.1,,31,c1cc(N2CC(CN3CCCC3)C2)c2nonc2c1 [compound 1473]
1.82,,63,Clc1cc(Cl)cc(-c2cc(N3CC(CN4CCCC4)C3)c3nonc3c2)c1 [compound 1478]
2.9,47,54,O=C(c1cc(N2CC(CN3CCCC3)C2)c2nonc2c1)N1CCOCC1 [compound 1538]
6.14,,11,CS(=O)(=O)c1ccccc1-c1cc(N2CC(CN3CCCC3)C2)c2nonc2c1 [compound 1481]
1.8,41,50,CCN(CC)C(=O)c1cc(N2CC(CN3CCCC3)C2)c2nonc2c1 [compound 1540]
30.1,,20,CC(=O)N1CCC=C(c2cc(N3CC(CN4CCCC4)C3)c3nonc3c2)C1 [compound 1521]

IC50 [1] [µM],inhibition at 5 µM [2] [%],inhibition at 10 µM [2] [%],Structure (SMILES)
9,,74,c1csc(-c2cc(N3CC(CN4CCCC4)C3)c3nonc3c2)c1 [compound 1529]
4.4,,27,Cc1ccc(-c2cc(N3CC(CN4CCCC4)C3)c3nonc3c2)cc1Cl [compound 1490]
23.3,,34,OCc1ccccc1-c1cc(N2CC(CN3CCCC3)C2)c2nonc2c1 [compound 1499]
2.7,,45,CN(C)C(=O)c1cccc(-c2cc(N3CC(CN4CCCC4)C3)c3nonc3c2)c1 [compound 1531]
10.1,,44,CS(=O)(=O)N1CCC=C(c2cc(N3CC(CN4CCCC4)C3)c3nonc3c2)C1 [compound 1522]
12.2,,36,c1cncc(-c2cc(N3CC(CN4CCCC4)C3)c3nonc3c2)c1 [compound 1476]
1.6,,34,CC(C)c1ccc(-c2cc(N3CC(CN4CCCC4)C3)c3nonc3c2)cc1 [compound 1489]
2.4,70,75,CN(CCCN1CCCC1)c1cc(-c2cccc(C(O)C(F)(F)F)c2)cc2nonc12 (stereo not shown) [compound 1469]
1.1,63,84,OC(c1ccc(-c2cc(N3CC(CN4CCCC4)C3)c3nonc3c2)s1)C(F)(F)F (stereo not shown) [compound 1543]
6.5,,56,FC(F)(F)c1cccc(-c2cc(N3CC(CN4CCCC4)C3)c3nonc3c2)c1 [compound 1484]
2.63,,26,c1ccc2oc(-c3cc(N4CC(CN5CCCC5)C4)c4nonc4c3)cc2c1 [compound 1485]
> 20,,35,CS(=O)(=O)N1CC=C(c2cc(N3CC(CN4CCCC4)C3)c3nonc3c2)CC1 [compound 1518]
11.2,,57,FC(F)(F)c1ccccc1-c1cc(N2CC(CN3CCCC3)C2)c2nonc2c1 [compound 1514]
4.44,,44,Cc1cc(C)cc(-c2cc(N3CC(CN4CCCC4)C3)c3nonc3c2)c1 [compound 1506]
8.21,,36,COc1ccc(-c2cc(N3CC(CN4CCCC4)C3)c3nonc3c2)cc1OC [compound 1483]
4.4,,29,OC(c1ccccc1-c1cc(N2CC(CN3CCOCC3)C2)c2nonc2c1)C(F)(F)F (stereo not shown) [compound 1471]
> 20,,33,CC(=O)N1CC=C(c2cc(N3CC(CN4CCCC4)C3)c3nonc3c2)CC1 [compound 1503]
4.1,37,,CN(C)C1CCN(c2cc(-c3cccc(C(O)C(F)(F)F)c3)cc3nonc23)CC1 (stereo not shown) [compound 1466]
7.8,,50,c1cc(-c2cc(N3CC(CN4CCCC4)C3)c3nonc3c2)ccn1 [compound 1528]
7.5,,49,Cn1cc(-c2cc(N3CC(CN4CCCC4)C3)c3nonc3c2)cn1 [compound 1527]
7.94,,24,CS(=O)(=O)c1cccc(-c2cc(N3CC(CN4CCCC4)C3)c3nonc3c2)c1 [compound 1479]
2.46,,83,CCCc1ccc(-c2cc(N3CC(CN4CCCC4)C3)c3nonc3c2)cc1 [compound 1507]
6.33,,31,CC(=O)c1cccc(-c2cc(N3CC(CN4CCCC4)C3)c3nonc3c2)c1 [compound 1480]
5.27,,72,c1ccc(Oc2ccccc2-c2cc(N3CC(CN4CCCC4)C3)c3nonc3c2)cc1 [compound 1504]
10.5,,79,c1coc(-c2cc(N3CC(CN4CCCC4)C3)c3nonc3c2)c1 [compound 1530]

Structure (SMILES),IC50 [1] [µM],inhibition at 5 µM [2] [%],inhibition at 10 µM [2] [%]
COCCN1CC=C(c2cc(N3CC(CN4CCCC4)C3)c3nonc3c2)CC1 [compound 1519],8.2,,53
